Experimental data as given in ChEMBL document CHEMBL5154691, “Discovery of novel verinurad analogs as dual inhibitors of URAT1 and GLUT9 with improved Druggability for the treatment of hyperuricemia” (Eur J Med Chem, 2022).
pIC50: −log10 of the molar value.

How the values were obtained:
[1] = Inhibition of URAT1 S35N mutant (unknown origin)-mediated 14C-uric acid uptake expressed in HEK293 cells using 14C-uric acid as substrate preincubated for 30 mins followed by substrate addition and measured after 15 mins by liquid scintillation counting analysis; format: cell-based; details: Homo sapiens
[2] = Inhibition of URAT1 F365Y mutant (unknown origin)-mediated 14C-uric acid uptake expressed in HEK293 cells using 14C-uric acid as substrate preincubated for 30 mins followed by substrate addition and measured after 15 mins by liquid scintillation counting analysis; format: cell-based; details: Homo sapiens
[3] = Cytotoxicity against human HK-2 cells assessed as reduction in cell viability incubated for 24 hrs by MTT assay; format: toxicity, cell-based
[4] = biological target: T1, Broad substrate specificity ATP-binding cassette transporter ABCG2 (Homo sapiens, UniProt Q9UNQ0); experiment: Inhibition of ABCG2 (unknown origin) expressed in HEK293 cells membrane vesicles assessed as inhibition of ATP-induced 14C-uric acid uptake preincubated for 15 mins followed by incubation with ATP and substrate for 5 mins by liquid scintillation counting analysis; format: toxicity, cell membranes, Membrane vesicle
T1 sequence (Q9UNQ0 whole entry): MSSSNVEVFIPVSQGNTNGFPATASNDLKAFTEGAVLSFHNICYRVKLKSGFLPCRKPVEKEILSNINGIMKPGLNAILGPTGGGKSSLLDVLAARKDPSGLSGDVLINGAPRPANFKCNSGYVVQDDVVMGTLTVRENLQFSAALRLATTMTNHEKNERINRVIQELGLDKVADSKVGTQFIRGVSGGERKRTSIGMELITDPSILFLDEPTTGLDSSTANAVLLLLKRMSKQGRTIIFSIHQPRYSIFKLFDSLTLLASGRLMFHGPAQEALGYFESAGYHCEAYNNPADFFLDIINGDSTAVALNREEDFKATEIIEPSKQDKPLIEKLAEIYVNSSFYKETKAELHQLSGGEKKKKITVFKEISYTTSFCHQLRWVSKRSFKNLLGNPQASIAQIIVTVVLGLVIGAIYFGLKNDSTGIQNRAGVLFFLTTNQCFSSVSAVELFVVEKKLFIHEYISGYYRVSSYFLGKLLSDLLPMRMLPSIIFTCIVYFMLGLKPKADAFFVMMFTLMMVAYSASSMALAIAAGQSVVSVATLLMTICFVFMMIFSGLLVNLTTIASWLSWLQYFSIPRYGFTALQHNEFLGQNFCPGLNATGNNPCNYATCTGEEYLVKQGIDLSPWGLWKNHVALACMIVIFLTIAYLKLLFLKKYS

[5] = Renal toxicity in xanthine and potassium oxonate-induced acute hyperuricemia Kunming mouse model assessed as blood urea nitrogen level at 10 mg/kg, po measured after 3 hrs; format: organism-based; details: in vivo
[6] = Inhibition of URAT1 F358Y mutant (unknown origin)-mediated 14C-uric acid uptake expressed in HEK293 cells using 14C-uric acid as substrate preincubated for 30 mins followed by substrate addition and measured after 15 mins by liquid scintillation counting analysis; format: cell-based; details: Homo sapiens
[7] = Cmax in Sprague-Dawley rat at 5 mg/kg, iv measured upto 36 hrs by LC-MS/MS analysis; format: ADME, organism-based; design: time < 36 hrs, dose 5 mg/kg, route iv; details: in vivo
[8] = Inhibition of URAT1 F241Y mutant (unknown origin)-mediated 14C-uric acid uptake expressed in HEK293 cells using 14C-uric acid as substrate preincubated for 30 mins followed by substrate addition and measured after 15 mins by liquid scintillation counting analysis; format: cell-based; details: Homo sapiens
[9] = biological target: T2, Solute carrier family 2, facilitated glucose transporter member 9 (Homo sapiens, UniProt Q9NRM0); experiment: Inhibition of GLUT9 (unknown origin) expressed in HEK293T cells assessed as inhibition of uric acid-induced current by whole cell patch clamp technique; format: cell-based
T2 sequence (Q9NRM0 whole entry): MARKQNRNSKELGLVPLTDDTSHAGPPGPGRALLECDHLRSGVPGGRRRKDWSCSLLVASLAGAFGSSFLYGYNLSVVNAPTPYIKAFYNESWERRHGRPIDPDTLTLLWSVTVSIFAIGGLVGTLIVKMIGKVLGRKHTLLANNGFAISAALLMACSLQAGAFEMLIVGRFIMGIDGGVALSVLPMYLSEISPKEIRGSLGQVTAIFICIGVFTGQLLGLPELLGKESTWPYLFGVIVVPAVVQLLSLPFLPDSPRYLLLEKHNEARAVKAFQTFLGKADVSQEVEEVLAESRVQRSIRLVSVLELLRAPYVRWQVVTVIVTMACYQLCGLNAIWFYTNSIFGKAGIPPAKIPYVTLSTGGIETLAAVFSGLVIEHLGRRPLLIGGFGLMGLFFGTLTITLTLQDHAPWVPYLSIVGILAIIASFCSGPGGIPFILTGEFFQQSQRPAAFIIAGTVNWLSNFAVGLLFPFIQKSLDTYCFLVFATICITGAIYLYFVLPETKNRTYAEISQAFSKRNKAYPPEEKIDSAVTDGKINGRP

[10] = Tmax in Sprague-Dawley rat at 5 mg/kg, po measured upto 36 hrs by LC-MS/MS analysis; format: ADME, organism-based; details: in vivo

pIC50 [1]: 5.50
pIC50 [2]: 5.80
pIC50 [6]: 6.11
Cmax [7]: 11100 ng/mL
pIC50 [8]: 6.51
pIC50 [9]: 5.03
Tmax [10]: 30 min
Compound: N#Cc1ccc(Nc2cnccc2SCc2ccccc2C(=O)[O-])c2ccccc12.[Na+]
IC50 at 24 h [3]: 208 µM
pIC50 [4]: 4.57
Activity [5]: Non-Toxic
